# According to PMC5531531, “A synthetic cationic antimicrobial peptide inhibits inflammatory response and the NLRP3 inflammasome by neutralizing LPS and ATP” (PLoS ONE, 2017):
# No end group written: not given here.
# Experiments:
# [1] = test system: E. coli-LPS-activated RAW 264.7 macrophages; experiment: TNF-α and IL-6 secretion ELISA, RAW 264.7; assay type: cell-based, mouse; settings: RAW 264.7, E. coli LPS 0.1 μg/ml 24 h, Fig 1E
# Method: (§1) The expression levels of IL-1β, IL-6 and TNF-α in the conditional medium, sera and lavage fluids were measured by ELISA as described in detail previously.
# Fig 1 Effects of GW-A2 on the expression levels of inflammatory mediators. (A) RAW 264.7 macrophages were incubated for 30 min with or without GW-A2 or scrambled GW-A2, followed by incubation with or without 0.1 μg/ml of E. coli LPS or Salmonella LPS for 24 h. The levels of NO in the culture medium were measured by the Griess reaction. (B) RAW 264.7 macrophages were incubated for 30 min with or without GW-A2, followed by incubation with or without peptidoglycan (20 μg/ml), Pam3CSK4 (0.2 μg/ml) or capsular polysaccharide (3 μg/ml) for 24 h. The levels of NO in the culture medium were measured by the Griess reaction. […] The levels of iNOS and COX-2 were assessed by Western blotting and the histograms represent the expression levels compared to the LPS alone group obtained in three different experiments. […] The mRNA levels of iNOS and COX-2 were assessed by quantitative real-time PCR. […] The cell proliferation was measured by AlamarBlue® assay. The data are expressed as the mean ± SD of three independent experiments. *, ** and *** indicate significant differences, representing p < 0.05, p < 0.01 and p < 0.001, respectively compared to stimulation alone. # indicates significant differences, representing p < 0.05 compared to 2 μM of GW-A2 group.
# [2] = test system: E. coli-LPS-activated RAW 264.7 macrophages; experiment: MAPK, PKC-α/δ and IκB-α phosphorylation (Western blot); assay type: cell-based, mouse; settings: 2 μM GW-A2 30 min, then E. coli LPS 0.1 μg/ml 0–60 min
# Method: (§2) The protein expression levels of iNOS, COX-2, ERK1/2, JNK1/2, p38, IκB-α, PKC, caspase-1 and the phosphorylation levels of ERK1/2, JNK1/2, p38, PKC-α, PKC-δ, IκB-α were determined by Western blotting as described in detail previously.
# Fig 2 Effects of GW-A2 on LPS-mediated signaling pathways. (A-C) RAW 264.7 macrophages were incubated for 30 min with or without 2 μM of GW-A2, followed by 0–60 min with or without 0.1 μg/ml of E. coli LPS. The phosphorylation levels of (A) ERK1/2, JNK1/2 and p38, (B) PKC-α and PKC-δ, and (C) I-κB-α were assayed by western blotting. (D) RAW-Blue^TM cells were incubated for 30 min with or without GW-A2, followed by 24 h with or without 0.1 μg/ml of E. coli LPS. The activation levels of NF-κB were measured by an NF-κB reporter assay. The data are expressed as the mean ± SD of three independent experiments. The western blotting results shown are a representative experiment of three independent experiments. * and ** indicate significant differences, representing p < 0.05 and p < 0.01, respectively compared to LPS alone.
# [3] = test system: NF-κB activity in RAW-Blue cells; experiment: NF-κB reporter assay; assay type: cell-based; settings: E. coli LPS 0.1 μg/ml 24 h, QUANTI-Blue, Fig 2D
# Method: RAW-Blue™ cells (2 × 10^5 in 0.5 ml of medium) were seeded in 24-well plates and then incubated with LPS (0.1 μg/ml) in the presence or absence of AMPs for 24 h. The NF-κB activity was assayed by QUANTI-Blue™ (rep-qb1, InvivoGen) as described in detail previously.
# [4] = test system: NLRP3 inflammasome in J774A.1 macrophages; experiment: NLRP3 inflammasome activation (IL-1β ELISA, caspase-1 Western blot); assay type: cell-based
# Method: as §1, §2
# Fig 4 Effects of GW-A2 on NLRP3 inflammasome activation. (A and B) J774A.1 macrophages were incubated for 30 min with or without 2 μM of GW-A2, for 5.5 h with or without 0.1 μg/ml of E. coli LPS, and then for 30 min with or without 5 mM of ATP (A) or 10 μM of nigericin (B). The levels of IL-1β in the culture medium and activated caspase-1 (p10) in the cells were measured by ELISA and Western blotting, respectively. (C—F) J774A.1 macrophages were incubated for 5.5 h with 0.1 μg/ml of E. coli LPS, for 30 min with or without 2 μM of GW-A2, and then for 30 min with or without 5 mM of ATP (C and E), 10 μM of nigericin (D) or 100 μg/ml of MSU (F). The levels of IL-1β and TNF-α in the culture medium and activated caspase-1 (p10) in the cells were measured by ELISA and Western blotting, respectively. The data are expressed as the mean ± SD of three independent experiments. The Western blotting results shown are a representative experiment of three independent experiments. *, ** and *** indicate significant differences, representing p < 0.05, p < 0.01 and p < 0.001, respectively compared to stimulation alone.
sequence,measurement,setting,value
GAKYAKIIYNYLKKIANALW [GW-A2],IL-6 secretion level,[1],reduced
same,TNF-α secretion level,[1],reduced
same,"Phosphorylation levels of ERK1/2, JNK1/2 and p38",[2]; Fig 2A,reduced
same,Phosphorylation levels of PKC-α and PKC-δ,[2]; Fig 2B,reduced
same,Phosphorylation levels of IκB-α,[2]; Fig 2C,inhibited
same,NF-κB transcriptional activity,[3],reduced by GW-A2 in a dose-dependent manner
same,IL-1β secretion and caspase-1 activation induced by LPS+nigericin,"[4]; 2 μM GW-A2 30 min before LPS 5.5 h, then 10 μM nigericin 30 min, Fig 4B",significantly inhibited
same,IL-1β secretion and caspase-1 activation induced by LPS+ATP,"[4]; 2 μM GW-A2 30 min before LPS 5.5 h, then 5 mM ATP 30 min, Fig 4A",significantly inhibited
same,Nigericin-induced IL-1β secretion and caspase-1 activation in LPS-primed macrophages,"[4]; LPS 5.5 h, then 2 μM GW-A2 30 min, then 10 μM nigericin, Fig 4D",no significant effect
same,MSU-induced IL-1β secretion in LPS-primed macrophages,"[4]; LPS 5.5 h, then 2 μM GW-A2 30 min, then 100 μg/ml MSU, Fig 4F",not able to inhibit
same,ATP-induced IL-1β secretion and caspase-1 activation in LPS-primed macrophages,"[4]; LPS 5.5 h, then 2 μM GW-A2 30 min, then 5 mM ATP, Fig 4C",inhibited
same,TNF-α secretion in LPS-primed macrophages,"[4]; LPS 5.5 h, then 2 μM GW-A2 30 min, then 5 mM ATP, Fig 4E",did not decrease
